Oligonucleotides are written 5' to 3', each unit as a sugar letter and its base; * is a phosphorothioate linkage, no mark a phosphodiester; rarer units and linkages stand in square brackets, end groups in braces. Plain capitals give the bases only. d = 2'-deoxy (DNA)
Experiments:
guinea pigs = assay: Guinea pig AHR protocol (airway resistance and lung compliance); format: in vivo; conditions: guinea pigs, 10, 30, 100 or 300 μl/kg, i.t.
Procedure: Male guinea pigs were sensitized on study days 0 and 4 with antigen (ovalbumin, 0.5 ml, 1% OVA i.p./s.c.) with aluminum hydroxide adjuvant. Guinea pigs were antigen challenged by exposure to inhaled ovalbumin aerosol, twice each week for two consecutive weeks. The first challenge was on study day 13. CpG ODN or vehicle (saline, 20 μl) were administered intranasally once each week, two days before the first antigen challenge of the week. Airways hyperreactivity was assessed 24 hours after the last antigen challenge by measuring bronchoconstriction (increase in airway resistance) to intravenous methacholine. For each animal, a dose-response curve to methacholine was obtained, and airway reactivity was quantified as the area under the curve.
Method: Guinea pigs were sensitized as described in Example 10. The first challenge was on study day 13. Guinea pigs were given intranasally either carrier (saline), OVA alone, of concentrations of SEQ ID NO:7 of 10 μl/kg, 30 μl/kg, 100 μl/kg, or 300 μl/kg, i.t.
Method: Guinea pigs were sensitized as described in Example 10. The first challenge was on study day 13. Guinea pigs were given intranasally either carrier (saline), OVA alone, of concentrations of SEQ ID NO:2 of 10 μl/kg, 30 μl/kg, 100 μl/kg, or 300 μl/kg, i.t.

human TLR9 = target: T1, human TLR9 (Homo sapiens, UniProt Q9NR96); assay: Stimulation of TLR9-transfected cells in vitro (luciferase readout); format: cell-based; conditions: quotient between highest value of all concentrations tested and medium control
T1 construct: expressed in transfected cells; host or cells: HEK 293
T1 sequence (Q9NR96 26-1032): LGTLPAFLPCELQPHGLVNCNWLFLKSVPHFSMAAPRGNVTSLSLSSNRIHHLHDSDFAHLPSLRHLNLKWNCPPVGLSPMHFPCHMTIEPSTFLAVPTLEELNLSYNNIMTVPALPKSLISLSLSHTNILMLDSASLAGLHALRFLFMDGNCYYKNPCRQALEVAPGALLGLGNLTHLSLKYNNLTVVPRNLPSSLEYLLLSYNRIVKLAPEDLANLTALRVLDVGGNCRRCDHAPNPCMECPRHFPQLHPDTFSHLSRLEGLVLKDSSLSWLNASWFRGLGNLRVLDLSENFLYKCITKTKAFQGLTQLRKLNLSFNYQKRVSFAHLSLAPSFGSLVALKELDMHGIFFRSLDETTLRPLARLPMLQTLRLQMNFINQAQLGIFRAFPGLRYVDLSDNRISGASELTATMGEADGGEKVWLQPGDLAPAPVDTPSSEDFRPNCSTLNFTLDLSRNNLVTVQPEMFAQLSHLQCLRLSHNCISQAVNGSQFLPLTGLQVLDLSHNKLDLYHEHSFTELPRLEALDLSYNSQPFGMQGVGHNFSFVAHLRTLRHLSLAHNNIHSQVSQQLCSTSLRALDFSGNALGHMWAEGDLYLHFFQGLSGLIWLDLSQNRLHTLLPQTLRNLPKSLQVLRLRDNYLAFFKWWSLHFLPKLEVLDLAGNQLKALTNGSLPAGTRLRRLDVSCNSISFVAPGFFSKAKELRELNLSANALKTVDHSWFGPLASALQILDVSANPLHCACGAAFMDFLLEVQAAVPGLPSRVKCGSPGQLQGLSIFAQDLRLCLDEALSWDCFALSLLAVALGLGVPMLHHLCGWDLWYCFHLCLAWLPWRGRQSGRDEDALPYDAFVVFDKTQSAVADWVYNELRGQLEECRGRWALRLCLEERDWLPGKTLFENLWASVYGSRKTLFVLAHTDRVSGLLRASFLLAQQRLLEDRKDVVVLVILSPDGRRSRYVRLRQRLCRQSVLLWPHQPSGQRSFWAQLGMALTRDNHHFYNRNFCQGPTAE
Procedure: Methods: HEK 293 cells transfected with human TLR9 were incubated with SEQ ID NO:1, SEQ ID NO:2, SEQ ID NO:3, SEQ ID NO:4, SEQ ID NO:5, or SEQ ID NO:6 for 16 hours. The signal was determined by a luciferase readout.
The EC50 was calculated using Sigma Plot (SigmaPlot 2002 for Windows version 8.0). The maximal stimulation index (max SI) was calculated as the quotient between the highest value of all concentrations tested for any ODN and the medium control.

mouse splenocytes = assay: Cytokine secretion from mouse splenocytes by SEQ ID NO: 2 and fragments; format: cell-based; conditions: 0.01-10 μg/ml, 36 hours, FIGS. 43-45
Procedure: Spleens were removed from 6 mice (male, BALB/c). The splenocytes from each spleen were separated by pushing gently through a cell sieve (70 μm pore size), and were then pooled. Splenocytes were added to wells of culture plates. 1×10^7 cells in a volume of 900 μl medium were added to each well. Medium was RPMI 1640 containing 10% fetal bovine serum. 100 μl aliquots of CpG ODN solutions in medium were added to each well to give final concentrations in the wells of 0.01-10 μg/ml. After incubation for 36 hours (37 C, 5% CO2 incubator), culture supernatants were collected and assayed for cytokine concentrations using either the Luminex multiplex assay (IFNγ, IP-10, IL-10, IL-6, TNFα) or ELISA (IFNα).
The aim of this study was to investigate the biological activity of selected fragments (putative metabolites) of SEQ ID NO: 2. Activity was determined by measuring the ability of each fragment to induce secretion of TLR9-associated cytokines from mouse splenocytes […].
Stimulation of cytokine secretion by fragments of SEQ ID NO.: 2 is shown in the attached FIGS. 43-45. The oligonucleotides examined are depicted in the Figures by SEQ ID NO and include SEQ ID NO: 15-23. The concentration of oligonucleotide used to produce a particular data point is depicted along the X-axis (μg/ml).

BALB/c mice [1] = format: in vivo; conditions: mouse
BALB/c mice [2] = assay: Antigen-induced IgE and IgG2a production in the mouse; format: in vivo; conditions: i.p. 1-1000 μg/kg, serum study day 18, FIG. 19
Procedure: Methods: Mice (male BALB/c) were sensitized on study days 0 and 7 with antigen (ovalbumin, 10 μg, i.p.) and aluminum hydroxide adjuvant Pierce Alum, i.p.). Mice received SEQ ID NO:2 or SEQ ID NO:7 on study days −2, 0, 5 and 7 (i.e. two days before each sensitization and on the day of sensitization). Mice were bled by cardiac puncture on study day 18. Serum was collected by centrifugation and assayed by ELISA for ovalbumin-specific IgE and IgG2a.

[3] = 100 μg/kg intranasal, both virus-infected and antigen-challenged

Substance: T*C_G*T*C_G*T*C_G*T*T*C_G*G*C*G*C_G*C*G*C*C*G (DNA dT*dCdG*dT*dCdG*dT*dCdG*dT*dT*dCdG*dG*dC*dG*dCdG*dC*dG*dC*dC*dG) [SEQ ID NO: 2, Semi-soft class C CpG ODN]
- AUC-resistance (airway reactivity, area under the dose-response curve) (guinea pigs): dose-dependent reduction
- max SI (maximal stimulation index) (human TLR9): 20
- induction of TLR9-associated cytokines IFNα, IFNγ, IP-0, IL-6, IL-10 and TNFα (mouse splenocytes): induced
- antigen-induced eosinophilia (BALB/c mice [1]; 100 μg/kg intranasal, antigen challenge alone, FIG. 20): significantly suppress
- exacerbated accumulations of neutrophils and mononuclear cells (BALB/c mice [1]; [3]): both suppressed
- exacerbated airways inflammation (BALB/c mice [1]; [3]): significantly suppressed
- virus-induced neutrophilia (BALB/c mice [1]; 100 μg/kg intranasal, virus infection alone, FIG. 20): did not suppress
- loss of body weight (BALB/c mice [1]; both virus-infected and antigen-challenged): significantly suppressed
- production of antigen (ovalbumin)-specific IgE (BALB/c mice [2]): suppressed
- production of antigen (ovalbumin)-specific IgG2a (BALB/c mice [2]): potentiated

— patent publication US7795235B2, “Semi-soft c-class immunostimulatory oligonucleotides” (Coley Pharmaceutical GmbH, priority 2004, dated 2010)
